Source: patent US20260125371A1, “METHOD FOR INHIBITING CLOSTRIDIOIDES DIFFICILE SPORE GERMINATION” (UNIVERSITY OF NOTRE DAME DU LAC, priority 2022, published 2026)
≈ marks a conversion by molar mass, not a printed value. Like-named read-outs stand apart in the source and are kept apart here.

System: C. difficile ATCC 43255
Experiment: Determination of minimal-inhibitory concentrations (microdilution), C. difficile ATCC 43255
Format: cell-based, Clostridioides difficile
Settings: for MIC: Clostridioides difficile
[1] = ATCC43255, 24 h, C. difficile ATCC 43255, 24 h, read-out: MIC (μg/mL) 24 h
[2] = ATCC43255, 48 h, C. difficile ATCC 43255, 48-h incubation, read-out: MIC (μg/mL) 48 h
[3] = C. difficile ATCC 43255, 48-h incubation

SMILES | MIC [1] [µg/mL] | MIC [2] [µg/mL] | further results
Cl.O=[N+]([O-])c1c[nH]c(-c2nc(-c3ccc(OC4CCNCC4)cc3)no2)n1 [Compound 134, 5-(4-Nitro-1H-imidazol-2-yl)-3-(4-(piperidin-4-yloxy)phenyl)-1,2,4-oxadiazole hydrochloride] | > 128 | > 128 | –
Oc1ccc(/C=C/c2nc(-c3ccc(OC4CCCC4)cc3)no2)cc1 [Compound 66, 3-(4-(Cyclopentyloxy)phenyl)-(E)-5-(4-hydroxystyryl)-1,2,4-oxadiazole] | 32 (≈ 91.8 µM) | 64 (≈ 184 µM) | –
O=C(c1ccc(-c2noc(-c3ccc(O)cc3)n2)cc1)C(F)(F)F [Compound 109, 5-(4-Hydroxyphenyl)-3-(4-(2,2,2-trifluoroacetyl)phenyl)-1,2,4-oxadiazole] | 8 (≈ 23.9 µM) | 8 (≈ 23.9 µM) | –
Oc1ccc(Cc2nc(-c3ccc(OC4CCCC4)cc3)no2)cc1 [Compound 63, 3-(4-(Cyclopentyloxy)phenyl)-5-(4-hydroxybenzyl)-1,2,4-oxadiazole] | 8 (≈ 23.8 µM) | 16 (≈ 47.6 µM) | –
C[C@@H](N)c1nc(-c2ccc(OC3CCCC3)cc2)no1 [Compound 61, (R)-1-(3-(4-(Cyclopentyloxy)phenyl)-1,2,4-oxadiazol-5-yl) ethan-1-amine] | > 128 | > 128 | –
FC(F)(F)c1ccc(Oc2ccc(-c3noc(-c4cc5ccccc5[nH]4)n3)cc2)cc1 [Compound 48, 5-(1H-Indol-2-yl)-3-(4-(4-(trifluoromethyl)phenoxy)phenyl)-1,2,4-oxadiazole] | > 128 | > 128 | –
COC(OC)c1ccc(-c2noc(-c3ccc(O)cc3)n2)cc1 [Compound 106, 4-(3-(4-(Dimethoxymethyl)phenyl)-1,2,4-oxadiazol-5-yl)phenol] | 64 (≈ 205 µM) | > 128 | –
Clc1nc(-c2ccc(OC3CCCC3)cc2)no1 [Compound 70, 5-Chloro-3-(4-(cyclopentyloxy)phenyl)-1,2,4-oxadiazole] | > 128 | > 128 | –
C#CCCOc1ccc(-c2noc(-c3ccc(O)cc3)n2)cc1 [Compound 89, 4-(3-(4-(But-3-yn-1-yloxy)phenyl)-1,2,4-oxadiazol-5-yl)phenol] | > 128 | > 128 | –
Oc1ccc(-c2nc(-c3ccc(C(O)C(F)(F)F)cc3)no2)cc1 (stereo not shown) [Compound 108, 4-(3-(4-(2,2,2-Trifluoro-1-hydroxyethyl)phenyl)-1,2,4-oxadiazol-5-yl)phenol] | 32 (≈ 95.2 µM) | 32 (≈ 95.2 µM) | –
O=Cc1ccc(-c2noc(-c3ccc(O)cc3)n2)cc1 [Compound 107, 4-(5-(4-Hydroxyphenyl)-1,2,4-oxadiazol-3-yl)benzaldehyde] | 64 (≈ 240 µM) | > 128 | –
FC(F)(F)c1ccc(Oc2ccc(-c3noc(-c4ccncc4)n3)cc2)cc1 [Compound 23, 5-(Pyridin-4-yl)-3-(4-(4-(trifluoromethyl)phenoxy)phenyl)-1,2,4-oxadiazole] | > 128 | > 128 | –
Oc1cccc(/C=C/c2nc(-c3ccc(OC4CCCC4)cc3)no2)c1 [Compound 65, 3-(4-(Cyclopentyloxy)phenyl)-(E)-5-(3-hydroxystyryl)-1,2,4-oxadiazole] | > 128 | > 128 | –
c1nc2ccc(-c3nc(-c4ccc(OC5CCCC5)cc4)no3)cc2[nH]1 [Compound 55, 5-(1H-Benzo[d]imidazol-6-yl)-3-(4-(cyclopentyloxy)phenyl)-1,2,4-oxadiazole] | 128 (≈ 370 µM) | > 128 | MIC (μg/mL) 48 h [3]: 128 µg/mL (≈ 370 µM)
O=c1[nH]c(-c2ccc(OC3CCCC3)cc2)no1 [Compound 69, 3-(4-(Cyclopentyloxy)phenyl)-1,2,4-oxadiazol-5 (4H)-one] | 64 (≈ 260 µM) | 64 (≈ 260 µM) | –
Fc1ccc2oc3ccc(-c4noc(-c5ccc6[nH]ccc6c5)n4)cc3c2c1 [Compound 121, 3-(8-Fluorodibenzo[b,d]furan-2-yl)-5-(1H-indol-5-yl)-1,2,4-oxadiazole] | > 128 | > 128 | –
C[C@@H](NC(=O)OC(C)(C)C)c1nc(-c2ccc(OC3CCCC3)cc2)no1 [Compound 60, tert-Butyl (R)-(1-(3-(4-(cyclopentyloxy)phenyl)-1,2,4-oxadiazol-5-yl)ethyl) carbamate] | – | – | MIC (μg/mL) 48 h [3]: >128 µg/mL; MIC (μg/mL) 24 h (C. difficile ATCC 43255, 24 h): >128 µg/mL
O=[N+]([O-])c1ccc(-c2noc(-c3ccc4[nH]ccc4c3)n2)cc1 [Compound 126, 5-(1H-Indol-5-yl)-3-(4-nitrophenyl)-1,2,4-oxadiazole] | > 128 | > 128 | –

SMILES | MIC [1] [µg/mL] | MIC [2] [µg/mL] | further results
Oc1ccc(Nc2nc(-c3ccc(OC4CCCC4)cc3)no2)cc1 [Compound 64, 4-((3-(4-(Cyclopentyloxy)phenyl)-1,2,4-oxadiazol-5-yl)amino)phenol] | 16 (≈ 47.4 µM) | 32 (≈ 94.8 µM) | –
O=[N+]([O-])c1ccc(-c2nc(-c3ccc(OC4CCCC4)cc3)no2)cc1 [Compound 50, 3-(4-(Cyclopentyloxy)phenyl)-5-(4-nitrophenyl)-1,2,4-oxadiazole] | > 128 | – | MIC (μg/mL) 48 h [3]: >128 µg/mL
O=[N+]([O-])c1cn(CCO)c(-c2nc(-c3ccc(OC4CCCC4)cc3)no2)n1 [Compound 58, 3-(4-(Cyclopentyloxy)phenyl)-5-(1-(2-hydroxyethyl)-4-nitro-1H-imidazol-2-yl)-1,2,4-oxadiazole] | > 128 | > 128 | antibacterial activity against C. difficile (in words) (C. difficile ATCC43255): lost activity
O=C(NNC(=O)c1ccc(OC2CCCC2)cc1)c1ccc(O)cc1 [Compound 138, 4-(Cyclopentyloxy)-N′-(4-hydroxybenzoyl)benzohydrazide] | > 128 | > 128 | –
C[C@@H](NC(=O)OC(C)(C)C)C(=O)N[C@H](C)c1nc(-c2ccc(OC3CCCC3)cc2)no1 [Compound 62, 5-((R)-1-((R)-2-(Boc-amino)propanamido)ethyl)-3-(4-(cyclopentyloxy)phenyl)-1,2,4-oxadiazole] | > 128 | > 128 | –
CC(C)(C)OC(=O)N1CCC(Oc2ccc(-c3noc(-c4ncc([N+](=O)[O-])[nH]4)n3)cc2)CC1 [Compound 133, 3-(4-((1-(tert-Butoxycarbonyl)piperidin-4-yl)oxy)phenyl)-5-(5-nitro-1H-imidazol-2-yl)-1,2,4-oxadiazole] | > 128 | > 128 | –
c1cc2cc(-c3nc(-c4ccc(OC5CCCC5)cc4)no3)ccc2[nH]1 [Compound 56, 3-(4-(Cyclopentyloxy)phenyl)-5-(1H-indol-5-yl)-1,2,4-oxadiazole] | > 128 | > 128 | MIC (μg/mL) 48 h [3]: >128 µg/mL
Fc1ccccc1-c1noc(-c2ccc3[nH]ccc3c2)n1 [Compound 125, 3-(2-Fluorophenyl)-5-(1H-indol-5-yl)-1,2,4-oxadiazole] | > 128 | > 128 | –
Nc1nc(-c2ccc(OC3CCCC3)cc2)no1 [Compound 68, 3-(4-(Cyclopentyloxy)phenyl)-1,2,4-oxadiazol-5-amine] | > 128 | > 128 | –
C#CCOc1ccc(-c2noc(-c3ccc(O)cc3)n2)cc1 [Compound 88, 4-(3-(4-(Prop-2-yn-1-yloxy)phenyl)-1,2,4-oxadiazol-5-yl)phenol] | 16 (≈ 54.7 µM) | 128 (≈ 438 µM) | –
Cn1c(-c2nc(-c3ccc(OC4CCCC4)cc3)no2)cnc1[N+](=O)[O-] [Compound 59, 3-(4-(Cyclopentyloxy)phenyl)-5-(1-methyl-2-nitro-1H-imidazol-5-yl)-1,2,4-oxadiazole] | 32 (≈ 90.1 µM) | – | –
c1cc2cc(-c3nc(-c4ccc5c(c4)CCN5)no3)ccc2[nH]1 [Compound 129, 5-(1H-Indol-5-yl)-3-(indolin-5-yl)-1,2,4-oxadiazole] | > 128 | > 128 | –
CN1CCC(Oc2ccc(-c3noc(-c4ncc([N+](=O)[O-])[nH]4)n3)cc2)C1.Cl (stereo not shown) [Compound 132, 3-(4-((1-Methylpyrrolidin-3-yl)oxy)phenyl)-5-(5-nitro-1H-imidazol-2-yl)-1,2,4-oxadiazole hydrochloride] | > 128 | > 128 | –
Oc1ccc(-c2nnc(-c3ccc(OC4CCCC4)cc3)o2)cc1 [Compound 139, 4-(5-(4-(Cyclopentyloxy)phenyl)-1,3,4-oxadiazol-2-yl)phenol] | > 128 | – | MIC (μg/mL) 48 h [3]: >128 µg/mL
Oc1ccc(-c2nc(-c3ccc(Oc4ccccc4)c(Br)c3)no2)cc1 [Compound 79, 4-(3-(3-Bromo-4-phenoxyphenyl)-1,2,4-oxadiazol-5-yl)phenol] | > 128 | – | MIC (μg/mL) 48 h [3]: >128 µg/mL
Oc1ccc(-c2nc(-c3ccc(OC4CCCC=C4Br)cc3)no2)cc1 (stereo not shown) [Compound 78, 4-(3-(4-((2-Bromocyclohex-2-en-1-yl)oxy)phenyl)-1,2,4-oxadiazol-5-yl)phenol] | – | – | MIC (μg/mL) 48 h [3]: >128 µg/mL; MIC (ATCC43255, 24 h, read-out: MIC (μg/mL) 24 h): > 128 µg/mL; MIC (ATCC43255, 48 h, read-out: MIC (μg/mL) 48 h): > 128 µg/mL
FC(F)(F)c1ccc(Oc2ccc(-c3noc(-c4cn[nH]c4)n3)cc2)cc1 [Compound 33, 5-(1H-Pyrazol-4-yl)-3-(4-(4-(trifluoromethyl)phenoxy)phenyl)-1,2,4-oxadiazole] | > 128 | > 128 | –
